The source of these data is PubChem BioAssay AID330 (DTP/NCI, 2004).

This test has as its system P388 leukemia ip, CD2F1 mice, survival T/C. Kind of test: NCI In Vivo Anticancer Drug Screen. Data for tumor model P388 Leukemia (intraperitoneal) in CD2F1 (CDF1) mice. As to conditions: endpoint: median survival time, higher = longer survival. The procedure, abridged: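 Mice carrying the transplanted tumor received test compound or vehicle. Survival was recorded in each group, and the value is the treated-group measurement divided by that of the vehicle-treated control group.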

Setting [1] is: dose: 50.0 mg/kg/injection, schedule: Q01DX005 (ip), vehicle: saline with Tween-80.
Setting [2] is: dose: 100.0 mg/kg/injection, schedule: Q01DX005 (ip), vehicle: saline with Tween-80.
Where [3] appears, read: dose: 200.0 mg/kg/injection, schedule: Q01DX005 (ip), vehicle: saline with Tween-80.
Where [4] appears, read: dose: 60.0 mg/kg/injection, schedule: Q01DX005 (ip), vehicle: saline.
[5] abbreviates: dose: 120.0 mg/kg/injection, schedule: Q01DX005 (ip), vehicle: saline.
[6] abbreviates: dose: 240.0 mg/kg/injection, schedule: Q01DX005 (ip), vehicle: saline.
[7] abbreviates: dose: 50.0 mg/kg/injection, schedule: Q01DX009 (ip), vehicle: Klucel (hydroxypropylcellulose) (HPC).
Where [8] appears, read: dose: 100.0 mg/kg/injection, schedule: Q01DX009 (ip), vehicle: Klucel (hydroxypropylcellulose) (HPC).
The mark [9] stands for this setting: dose: 100.0 mg/kg/injection, schedule: Q01DX001 (ip), vehicle: saline with Tween-80.
The mark [10] stands for this setting: dose: 200.0 mg/kg/injection, schedule: Q01DX001 (ip), vehicle: saline with Tween-80.
The mark [11] stands for this setting: dose: 100.0 mg/kg/injection, schedule: Q04DX002 (ip), vehicle: saline with Tween-80.
The mark [12] stands for this setting: dose: 200.0 mg/kg/injection, schedule: Q04DX002 (ip), vehicle: saline with Tween-80.
The mark [13] stands for this setting: dose: 400.0 mg/kg/injection, schedule: Q04DX002 (ip), vehicle: saline with Tween-80.

Each structure is given as a SMILES string. Several values for one entry are separate records, joined by “and”; a condition that tells them apart may be missing. Equal entries are not always repeated. Inconclusive results and toxic doses are left out. Peptide text beside a SMILES is read from it.

In the case of `NC(N)=NCCCC(N)C(=O)N1CCCC1C(=O)O` (stereo not drawn) (H-Arg-Pro-OH; configuration not given here), the T/C was 101 % of control (dose: 50.0 mg/kg/injection, schedule: Q01DX005 (ip), vehicle: saline); 97 % of control (dose: 100.0 mg/kg/injection, schedule: Q01DX005 (ip), vehicle: saline); 100 % of control (dose: 200.0 mg/kg/injection, schedule: Q01DX005 (ip), vehicle: saline).

On to `O=COCC(C(=O)O)c1ccccc1` (stereo unspecified), for which the T/C is, setting by setting: under setting [1], 102 % of control; under setting [2], 94 % of control; under setting [3], 95 % of control.

As to `C=C1C(=O)OC2C1C(OC(=O)/C(=C/CO)CO)CC1(CO1)C1CC=C(C)C21` (stereo unspecified), the T/C (dose: 0.94 mg/kg/injection, schedule: Q01DX005 (ip), vehicle: Klucel (hydroxypropylcellulose) (HPC)) was 111 % of control; the T/C (dose: 1.87 mg/kg/injection, schedule: Q01DX005 (ip), vehicle: Klucel (hydroxypropylcellulose) (HPC)) was 107 % of control; the T/C (dose: 3.75 mg/kg/injection, schedule: Q01DX005 (ip), vehicle: Klucel (hydroxypropylcellulose) (HPC)) was 108 % of control.

Take `COc1ccc(C2COc3c(ccc(O)c3C)C2)cc1OC` (stereo unspecified): the T/C (dose: 60.0 mg/kg/injection, schedule: Q01DX005 (ip), vehicle: saline with Tween-80) is 97 % of control; the T/C (dose: 120.0 mg/kg/injection, schedule: Q01DX005 (ip), vehicle: saline with Tween-80) is 97 % of control; the T/C (dose: 240.0 mg/kg/injection, schedule: Q01DX005 (ip), vehicle: saline with Tween-80) is 95 % of control.

In the case of `COc1ccc(N=Nc2c(C)nn(C(=S)S)c2C)cc1`, the T/C was 113 % of control under setting [1], 101 % of control under setting [2] and 106 % of control under setting [3].

For `Cc1ccc(N(C)c2cc(=O)n(C)c(=O)[nH]2)cc1C`, the T/C by setting is: under setting [1], 94 % of control; under setting [2], 103 % of control.

For `Cc1oc2ccccc2c(=O)c1CN1CCN(c2ccccc2)CC1`, the T/C runs as follows: under setting [4], 103 % of control; under setting [5], 101 % of control; under setting [6], 92 % of control.

With `O=C(/C=C/c1ccccc1)c1ccccc1`, the T/C runs as follows: (dose: 12.5 mg/kg/injection, schedule: Q01DX009 (ip), vehicle: Klucel (hydroxypropylcellulose) (HPC)) 100 % of control; (dose: 25.0 mg/kg/injection, schedule: Q01DX009 (ip), vehicle: Klucel (hydroxypropylcellulose) (HPC)) 105 % of control; under setting [7], 100 % of control; under setting [8], 108 % of control.

For `N#[N+]c1c([O-])ccc2ccccc12`, the T/C is 92 % of control (dose: 25.0 mg/kg/injection, schedule: Q04DX002 (ip), vehicle: Klucel (hydroxypropylcellulose) (HPC)); 104 % of control (dose: 50.0 mg/kg/injection, schedule: Q04DX002 (ip), vehicle: Klucel (hydroxypropylcellulose) (HPC)); 90 % of control (dose: 100.0 mg/kg/injection, schedule: Q04DX002 (ip), vehicle: Klucel (hydroxypropylcellulose) (HPC)).

In the case of `Cn1ncc(=O)c(Cl)c1Cl`, the T/C runs as follows: under setting [1], 95 % of control; under setting [2], 101 % of control; under setting [3], 102 % of control.

In the case of `CSCc1cc([N+](=O)[O-])ccc1N`, the T/C runs as follows: under setting [9], 91 % of control; under setting [10], 98 % of control.

In the case of `CC1c2ccccc2NC(=O)N1N1CCOCC1` (stereo unspecified), the T/C reads like this: (dose: 50.0 mg/kg/injection, schedule: Q01DX005 (ip), vehicle: Klucel (hydroxypropylcellulose) (HPC)) 96 % of control; (dose: 100.0 mg/kg/injection, schedule: Q01DX005 (ip), vehicle: Klucel (hydroxypropylcellulose) (HPC)) 93 % of control; (dose: 200.0 mg/kg/injection, schedule: Q01DX005 (ip), vehicle: Klucel (hydroxypropylcellulose) (HPC)) 97 % of control.

For the molecule `[Se]=P(N1CC1)(N1CC1)N1CC1`, the T/C is, setting by setting: (dose: 13.75 mg/kg/injection, schedule: Q01DX001 (ip), vehicle: Klucel (hydroxypropylcellulose) (HPC)) 119 % of control; (dose: 27.5 mg/kg/injection, schedule: Q01DX001 (ip), vehicle: Klucel (hydroxypropylcellulose) (HPC)) 155 % of control.

Consider `COc1cc2c(cc1OC)-c1ccccc1COC2=O`, for which the T/C by setting is: under setting [11], 102 % of control; under setting [12], 93 % of control; under setting [13], 92 % of control.

Turning to `C=C1C(=O)OC2C1CCC(=C)C1CC(OC3OC(CO)C(O)C(O)C3O)C(=C)C12` (stereo unspecified), the T/C (dose: 50.0 mg/kg/injection, schedule: Q04DX003 (ip), vehicle: saline with Tween-80) was 93 % of control; the T/C (dose: 100.0 mg/kg/injection, schedule: Q04DX003 (ip), vehicle: saline with Tween-80) is 105 % of control and 86 % of control; the T/C (dose: 200.0 mg/kg/injection, schedule: Q04DX003 (ip), vehicle: saline with Tween-80) is 104 % of control; the T/C (dose: 400.0 mg/kg/injection, schedule: Q04DX003 (ip), vehicle: saline with Tween-80) was 104 % of control and 124 % of control.

`C=C/C=C/NC(=O)OCc1ccccc1`: the T/C is, setting by setting: (dose: 50.0 mg/kg/injection, schedule: Q01DX009 (ip), vehicle: saline with Tween-80) 100 % of control; (dose: 100.0 mg/kg/injection, schedule: Q01DX009 (ip), vehicle: saline with Tween-80) 105 % of control; (dose: 200.0 mg/kg/injection, schedule: Q01DX009 (ip), vehicle: saline with Tween-80) 102 % of control.

In the case of `Fc1ccc(N=Cc2cccs2)cc1`, the T/C under setting [7] is 110 % of control; the T/C under setting [8] was 107 % of control; the T/C (dose: 200.0 mg/kg/injection, schedule: Q01DX009 (ip), vehicle: Klucel (hydroxypropylcellulose) (HPC)) was 110 % of control.

Regarding `CC(=O)OC1SC(C)(C)n2c1nc1ccccc1c2=O` (stereo unspecified), the T/C by setting is: under setting [9], 100 % of control; under setting [10], 104 % of control; (dose: 400.0 mg/kg/injection, schedule: Q01DX001 (ip), vehicle: saline with Tween-80) 98 % of control.

For the molecule `O=C(Nc1cnns1)Oc1ccccc1`, the T/C runs as follows: (dose: 12.5 mg/kg/injection, schedule: Q01DX009 (ip), vehicle: other) 117 % of control; (dose: 25.0 mg/kg/injection, schedule: Q01DX009 (ip), vehicle: other) 92 % of control; (dose: 50.0 mg/kg/injection, schedule: Q01DX009 (ip), vehicle: other) 93 % of control; (dose: 100.0 mg/kg/injection, schedule: Q01DX009 (ip), vehicle: other) 92 % of control; (dose: 200.0 mg/kg/injection, schedule: Q01DX009 (ip), vehicle: other) 97 % of control.

With `CC(C)(C)OC(=O)c1ccc(C(=O)OC(C)(C)C)cc1`, the T/C reads like this: under setting [11], 97 % of control; under setting [12], 96 % of control; under setting [13], 96 % of control.

Take `O=C1CSCC(=O)OCCOCCSCCOCCO1`: the T/C by setting is: (dose: 100.0 mg/kg/injection, schedule: Q04DX003 (ip), vehicle: suspension in saline) 92 % of control; (dose: 200.0 mg/kg/injection, schedule: Q04DX003 (ip), vehicle: suspension in saline) 99 % of control; (dose: 400.0 mg/kg/injection, schedule: Q04DX003 (ip), vehicle: suspension in saline) 101 % of control.

With `c1ccc2c(c1)c1c(c3ccccc32)CNCC1`, the T/C runs as follows: (dose: 3.12 mg/kg/injection, schedule: Q01DX005 (ip), vehicle: saline with Tween-80) 97 % of control; (dose: 6.25 mg/kg/injection, schedule: Q01DX005 (ip), vehicle: saline with Tween-80) 95 % of control; (dose: 12.5 mg/kg/injection, schedule: Q01DX005 (ip), vehicle: saline with Tween-80) 101 % of control and 95 % of control; under setting [1], 117 % of control.

With `COc1ccc(/C=N/N2CN(C(C)C(=O)O)C(C)(O)N=C2N)cc1OC` (stereo unspecified), the T/C is, setting by setting: under setting [4], 102 % of control; under setting [5], 104 % of control; under setting [6], 103 % of control.
